# How the values were obtained:
# TNFα = assay: Inhibition of LPS-induced TNFα expression in PBMCs (ELISA); assay type: cell-based; conditions: LPS-stimulated PBMCs; for Concentration of TNFα in PBMCs / Inhibition ratio of production of TNFα in PBMCs: overnight
# Method: (§1) Peripheral blood […] (PBMCs) were isolated from fresh blood using a Ficoll-Paque Plus reagent (Amersham Bioscience) according to the protocol recommended by the manufacturer. The cells were suspended in a RPMI 1640 medium containing 10% FBS at a concentration of 1×10^5 cells/ml and seeded in a 96-well plate (1×10^4 cells total in each well). Each reaction was carried out in three wells. […] In a positive control, dexamethason (DEX), an anti-inflammatory agent, instead of 5-HMF, was added (final concentration 10 μM). In a positive control, 10 μl of the medium, instead of 5-HMF, was added. The plate was incubated at 37° C. under 5% CO2 for 15 minutes. After 10 μl aliquots of 100 μg/ml of lipopolysaccharide (LPS) were added to all wells except for the negative control, the plate was incubated at 37° C. under 5% CO2 overnight. The plate was spun at 1000 rpm for 15 minutes and the supernatants were collected. The concentrations of TNFα and IL-1β were measured by the TNFα ELISA (Enzyme Linked Immunosorbent Assay) Kit and IL1-β ELISA Kit (Jingmei Bioengineer Technology). The inhibition ratios of TNFα and IL1-β were calculated as follows and the results are shown in Tables 1 and 2: TNFα Inhibition Ratio (%)=[TNFα]control−[TNFα]5-HMF/[TNFα]control×100% IL1-β Inhibition Ratio (%)=[IL1-β]control−[IL1-β]5-HMF/[IL1-β]control×100% where [TNFα]5-HMF is the concentration of TNFα in PBMCs treated with 5-HMF and LPS, [TNFα]control is the concentration of TNFα in PBMCs treated with LPS and the medium, [IL1-β]5-HMF is the concentration of IL1-β in PBMCs treated with 5-HMF and LPS, and [IL1-β]control is the concentration of IL1-β in PBMCs treated with LPS and the medium.
# IL-1β = assay: Inhibition of LPS-induced IL-1β expression in PBMCs (ELISA); assay type: cell-based; conditions: LPS-stimulated PBMCs; for Concentration of IL-1β in PBMCs / Inhibition ratio of production of IL-1β in PBMCs: overnight
# Method: as §1
# [1] = at the concentration of 300 μg/ml
structure (smiles),measurement,setting,value
"O=Cc1ccc(CO)o1 [5-HMF, 5-(hydroxymethyl)furfural]",Concentration of TNFα in PBMCs,TNFα; 5-HMF 3 μg/ml,124.4 ± 15.2 pg/mL
same,Inhibition ratio of production of TNFα in PBMCs,TNFα; 5-HMF 3 μg/ml,15.7 ± 10.3%
same,Concentration of TNFα in PBMCs,TNFα; 5-HMF 10 μg/ml,107.9 ± 20.0 pg/mL
same,Inhibition ratio of production of TNFα in PBMCs,TNFα; 5-HMF 10 μg/ml,26.8 ± 13.6%
same,Concentration of TNFα in PBMCs,TNFα; 5-HMF 30 μg/ml,82.9 ± 27.9 pg/mL
same,Inhibition ratio of production of TNFα in PBMCs,TNFα; 5-HMF 30 μg/ml,43.8 ± 18.9%
same,Concentration of TNFα in PBMCs,TNFα; 5-HMF 100 μg/ml,39.3 ± 19.7 pg/mL
same,Inhibition ratio of production of TNFα in PBMCs,TNFα; 5-HMF 100 μg/ml,73.4 ± 13.4%
same,Concentration of TNFα in PBMCs,TNFα; 5-HMF 300 μg/ml,0.3 ± 6.4 pg/mL
same,Inhibition ratio of production of TNFα in PBMCs,TNFα; 5-HMF 300 μg/ml,99.3 ± 4.3%
same,Inhibition of expression of TNFα (in words),TNFα; [1],completely inhibited
same,Inhibition of expression of TNFα (in words),TNFα; over the tested concentrations,concentration-dependent
same,Concentration of IL-1β in PBMCs,IL-1β; 5-HMF 3 μg/ml,69.9 ± 12.6 pg/mL
same,Inhibition ratio of production of IL-1β in PBMCs,IL-1β; 5-HMF 3 μg/ml,40.2 ± 10.8%
same,Concentration of IL-1β in PBMCs,IL-1β; 5-HMF 10 μg/ml,62.7 ± 10.5 pg/mL
same,Inhibition ratio of production of IL-1β in PBMCs,IL-1β; 5-HMF 10 μg/ml,46.4 ± 9.0%
same,Concentration of IL-1β in PBMCs,IL-1β; 5-HMF 30 μg/ml,40.1 ± 2.4 pg/mL
same,Inhibition ratio of production of IL-1β in PBMCs,IL-1β; 5-HMF 30 μg/ml,65.7 ± 2.0%
same,Concentration of IL-1β in PBMCs,IL-1β; 5-HMF 100 μg/ml,13.0 ± 3.7 pg/mL
same,Inhibition ratio of production of IL-1β in PBMCs,IL-1β; 5-HMF 100 μg/ml,88.8 ± 3.1%
same,Concentration of IL-1β in PBMCs,IL-1β; 5-HMF 300 μg/ml,0 ± 5.0 pg/mL
same,Inhibition ratio of production of IL-1β in PBMCs,IL-1β; 5-HMF 300 μg/ml,100 ± 4.3%
same,Inhibition of expression of IL-1β (in words),IL-1β; [1],completely inhibited
same,Inhibition of expression of IL-1β (in words),IL-1β; over the tested concentrations,concentration-dependent
"C[C@@H]1C[C@H]2[C@@H]3CCC4=CC(=O)C=C[C@]4(C)[C@@]3(F)[C@@H](O)C[C@]2(C)[C@@]1(O)C(=O)CO [DEX, dexamethason, reference compound]",Concentration of TNFα in PBMCs,TNFα; 10 μM DEX,39.5 ± 9.0 pg/mL
same,Inhibition ratio of production of TNFα in PBMCs,TNFα; 10 μM DEX,73.2 ± 6.1%
same,Concentration of IL-1β in PBMCs,IL-1β; 10 μM DEX,20.2 ± 7.0 pg/mL
same,Inhibition ratio of production of IL-1β in PBMCs,IL-1β; 10 μM DEX,82.7 ± 6.0%
